Measurements from US6063788A, “Bicyclic-fused pyridines” (Bayer Aktiengesellschaft, priority 1996, dated 2000).

Tests used:
[1] = target: T1, cholesterol ester transfer protein (CETP) (Homo sapiens, UniProt P11597); test: CETP inhibition testing (transfer of 3H-cholesterol ester from HDL to biotinylated LDL); format: biochemical; settings: substance concentration at which transfer is reduced by half; 18 h at 37° C.
T1 construct: CETP is obtained from human plasma in partially purified form; from tissue; host or cells: human plasma (partially purified by centrifugation, phenyl-Sepharose, CM-Sepharose, Mono Q)
T1 sequence (P11597 18-493): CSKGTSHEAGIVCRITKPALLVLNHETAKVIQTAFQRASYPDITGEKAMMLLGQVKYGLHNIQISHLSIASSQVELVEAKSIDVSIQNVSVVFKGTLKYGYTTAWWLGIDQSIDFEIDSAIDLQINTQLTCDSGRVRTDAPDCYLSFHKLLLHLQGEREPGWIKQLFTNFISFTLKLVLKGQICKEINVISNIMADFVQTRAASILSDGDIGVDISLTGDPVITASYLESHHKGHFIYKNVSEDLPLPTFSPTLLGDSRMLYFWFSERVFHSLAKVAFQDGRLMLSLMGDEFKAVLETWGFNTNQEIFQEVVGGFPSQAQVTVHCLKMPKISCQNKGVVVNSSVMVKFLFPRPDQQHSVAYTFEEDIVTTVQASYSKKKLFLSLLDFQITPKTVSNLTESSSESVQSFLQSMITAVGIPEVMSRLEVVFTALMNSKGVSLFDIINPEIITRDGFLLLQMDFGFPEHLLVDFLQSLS
Method: CETP is obtained from human plasma in partially purified form by differential centrifugation and column chromatography and used for the test. To this end, human plasma is adjusted to a density of 1.21 g per ml using NaBr and centrifuged at 4° C. for 18 h at 50,000 rpm. The bottom fraction (d>1.21 g/ml) is applied to a Sephadex®phenyl-sepharose 4B (Pharmacia) column, washed with 0.15 M NaCl/0.001 M trisHCl pH 7.4 and then eluted with distilled water. The CETP-active fractions are pooled, dialysed against 50 mM Na acetate pH 4.5 and applied to a CM-Sepharose® (Pharmacia) column. The column is then eluted using a linear gradient (0-1 M NaCl). The pooled CETP fractions are dialysed against 10 mM tris HCl pH 7.4 and then further purified by chromatography on a Mono Q® column (Pharmacia).
Obtainment of radiolabelled HDL
50 ml of fresh human EDTA plasma are adjusted to a density of 1.12 using NaBr and centrifuged at 50,000 rpm for 18 h at 4° C. in a Ty 65 rotor. The upper phase is used to obtain cold LDL. The lower phase is dialysed against 3×4 l of PDB buffer (10 mM tris/HCl pH 7.4, […], 1 mM EDTA, 0.02% NaN3). 20 μl of ^3 H-cholesterol (Dupont NET-725; 1 μC/μl dissolved in ethanol!) are then added per 10 ml of retentate volume and the mixture is incubated under N2 at 37° C. for 72 h. […]
To test the CETP activity, the transfer of ^3 H-cholesterol ester from human HD lipoproteins to biotinylated LD lipoproteins is measured.
The reaction is ended by addition of streptavidin-SPA®beads (Amersham) and the transferred radioactivity is determined directly in a liquid scintillation counter.
In the test mixture, 10 μl of HDL-^3 H-cholesterol ester (~50,000 cpm) are incubated at 37° C. for 18 h with 10 μl of biotin-LDL (Amersham) in 50 mM Hepes/0.15 M NaCl/0.1% bovine serum albumin/0.05% NaN3 pH 7.4 with 10 μl of CETP (1 mg/ml) and 3 μl of solution of the substance to be tested (dissolved in 10% DMSO/1% RSA). 200 μl of the SPA-streptavidin bead solution (TRKQ 7005) are then added, the mixture is incubated further for 1 h with shaking and then measured in the scintillation counter. […]

CETP = test: Ex vivo activity: CETP activity in serum of treated hamsters; set-up: species or system Syrian golden hamsters; settings: hamster serum; for ED50 (ex vivo activity): up to 24 hours after administration
Method: Ex Vivo Activity of the Compounds According to the Invention
Syrian golden hamsters from in-house breeding are anaesthetized after fasting for 24 hours (0.8 mg/kg of atropine, 0.8 mg/kg of Ketavet® s.c., 30' later 50 mg/kg of Nembutal i.p.). The jugular vein is then exposed and cannulated. The test substance is dissolved in a suitable solvent (as a rule Adalat placebo solution: 60 g of glycerol, 100 ml of H2 O, PEG-400 to 1000 ml) and administered to the animals via a PE catheter inserted in the jugular vein. The control animals receive the same volume of solvent without test substance. The vein is then tied off and the wound is closed. The administration of the test substances can also be carried out p.o., by orally administering the substances dissolved in DMSO and suspended in 0.5% Tylose by means of a stomach tube. The control animals receive identical volumes of solvent without test substance.
After various times--up to 24 hours after administration--blood (about 250 μl) is taken from the animals by puncture of the retro-orbital venous plexus. Clotting is ended by incubation at 4° C. overnight, then centrifugation is carried out at 6000×g for 10 minutes. In the serum thus obtained, CETP activity is determined by the modified CETP test. As for the CETP test described above, the transfer of ^3 H-cholesterol ester from HD lipoproteins to biotinylated LD lipoproteins is measured.
The reaction is ended by addition of Streptavidin-SPA® beads (Amersham) and the transferred radioactivity is determined directly in the liquid scintillation counter.
The test mixture is carried out as described under "CETP test". For the testing of the serum, only 10 μl of CETP are replaced by 10 μl of the corresponding serum samples. As controls, corresponding incubations with sera of untreated animals are used.
The activity transferred in the control mixtures with control sera is rated as 100% transfer. The substance concentration at which this transfer is reduced to a half is indicated as the ED50 value.

transgenic hCETP mice = test: In vivo activity in transgenic hCETP mice; settings: 100 ppm in the feed; one week
Method: In Vivo Activity in Transgenic hCETP Mice
Transgenic mice from in-house breeding (Dinchuck, Hart, Gonzalez, Karmann, Schmidt, Wirak; BBA (1995), 1295, 301) were administered the substances to be tested in the feed. Before the start of the experiment, blood was taken retro-orbitally from the mice in order to determine cholesterol and triglycerides in the serum. The serum was obtained as described above for hamsters by incubation at 4° C. overnight and subsequent centrifugation at 6000×g. After one week, blood was again taken from the mice in order to determine lipoproteins and triglycerides. The change in the parameters measured is expressed as a percentage change compared with the starting value.

HDL cholesterol = test: In vivo activity: oral action on lipoproteins (HDL rise) in hamsters; set-up: species or system Syrian golden hamsters; settings: Dose 2 × 10 mg/kg, hamster, up to 24 hours
Method: In Vivo Activity of the Compounds According to the Invention
In experiments to determine the oral action on lipoproteins and triglycerides, test substance dissolved in DMSO and 0.5% Tylose suspended by means of a stomach tube are administered orally to Syrian golden hamsters from in-house breeding. To determine the CETP activity, blood (about 250 μl) is taken by retro-orbital puncture before the start of the experiment. The test substances are then administered orally by means of a stomach tube. The control animals receive identical volumes of solvents without test substance. The feed is then withdrawn from the animals and blood is taken at various times--up to 24 hours after substance administration--by puncture of the retro-orbital venous plexus.
Clotting is ended by incubation at 4° C. overnight, then centrifugation at 6000×g is carried out for 10 minutes. In the serum thus obtained, the content of cholesterol and triglycerides is determined with the aid of modified commercially available enzyme tests (cholesterol enzymatic 14366 Merck, triglycerides 14364 Merck). Serum is suitably diluted using physiological saline solution.
100 μl of serum dilution are mixed with 100 μl of […] in 96-hole plates and incubated at room temperature for 10 minutes. The optical density is then determined at a wavelength of 492 nm using an automatic plate-reading apparatus. The triglyceride or cholesterol concentration contained in the samples is determined with the aid of a standard curve measured in parallel.
The determination of the content of HDL cholesterol is carried out according to the manufacturer's instructions after precipitation of the ApoB-containing lipoproteins by means of a reagent mixture (Sigma 352-4 HDL cholesterol reagent).

Compound | IC50 [1] [nM] | % Inhibition at 10 mg/kg (CETP) [%] | ED50 (ex vivo activity) (CETP) [mg/kg] | % HDL rise (HDL cholesterol) [%] | further results
CC(C)c1nc2c(c(-c3ccc(F)cc3)c1C(F)c1ccc(C(F)(F)F)cc1)C(O)c1cc(Cl)c(Cl)cc1-2 (stereo not drawn) [Example 27] | 300 |  |  |  | 
CC(C)c1nc2c(c(-c3ccc(F)cc3)c1C(F)c1ccc(C(F)(F)F)cc1)C(O)c1ccccc1-2 (stereo not drawn) [Example 14] | 60 | 64.0 | < 10 |  | HDL (percentage change compared with the starting value) (transgenic hCETP mice): 22.0%; LDL (percentage change compared with the starting value) (transgenic hCETP mice): -10.5%; Triglyceride (percentage change compared with the starting value) (transgenic hCETP mice): -9.7%
OC(c1ccc(Cl)c(C(F)(F)F)c1)c1c(C2CCCC2)nc2c(c1-c1ccc(F)cc1)C(O)c1ccccc1-2 (stereo not drawn) [Example 22] | 240 |  |  |  | 
O=C(c1ccc(C(F)(F)F)cc1)c1c(C2CCCC2)nc2c(c1-c1ccc(F)cc1)C(O)c1ccccc1-2 (stereo not drawn) [Example 19] |  | 46.0 | > 10 | 17.1 | 
OC1c2ccccc2-c2nc(C3CCCC3)c(C(F)c3ccc(C(F)(F)F)cc3)c(-c3ccc(F)cc3)c21 (stereo not drawn) [Example 18] |  |  |  | 3.3 | 
OC1c2ccccc2-c2nc(C3CCCC3)c(Cc3ccc(C(F)(F)F)cc3)c(-c3ccc(F)cc3)c21 (stereo not drawn) [Example 20] |  |  |  | 11.14 | 
O=C1c2cccc(F)c2-c2nc(C3CCCC3)c(C(F)c3ccc(C(F)(F)F)cc3)c(-c3ccc(F)cc3)c21 (stereo not drawn) [Example 29] |  | 17.2 | > 10 |  | 
